Like-named read-outs stand apart in the source and are kept apart here. No end group written: not given here.
Molecular target: T1, GPR103 F11N-termA (Homo sapiens, UniProt Q96P65, F11A)
T1 construct: we used human full-length QRFPR-encoding plasmids; expressed in transfected cells; host or cells: HEK293 cells, pCAGGS vector
T1 sequence (Q96P65 1-431 F11A): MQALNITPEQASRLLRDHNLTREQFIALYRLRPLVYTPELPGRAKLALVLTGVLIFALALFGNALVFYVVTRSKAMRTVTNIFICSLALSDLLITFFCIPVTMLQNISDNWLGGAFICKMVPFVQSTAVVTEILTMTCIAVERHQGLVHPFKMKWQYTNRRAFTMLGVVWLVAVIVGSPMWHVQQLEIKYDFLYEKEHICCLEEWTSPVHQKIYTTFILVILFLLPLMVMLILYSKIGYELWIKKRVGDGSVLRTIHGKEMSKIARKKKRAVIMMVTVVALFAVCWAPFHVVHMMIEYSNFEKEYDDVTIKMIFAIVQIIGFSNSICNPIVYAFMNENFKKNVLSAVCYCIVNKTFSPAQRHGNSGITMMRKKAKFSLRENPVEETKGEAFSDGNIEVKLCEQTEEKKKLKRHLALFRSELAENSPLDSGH
Assay: TGFα shedding assay; Exp. level WT (1:10)
Type: cell-based
Method: For the TGFα shedding assay and the flow cytometry analysis, we used human full-length QRFPR-encoding plasmids. Specifically, GPR103 was N-terminally modified with an HA signal sequence followed by a FLAG epitope and then a flexible linker ([…]; the FLAG epitope is underlined) and inserted into the pCAGGS vector. Plasmid encoding GPR103 mutants were generated using Quickchange Site-Directed Mutagensis kit (Agilent).
The TGFα shedding assay was performed as described previously with minor modifications. Plasmid transfection was performed in a 6-well plate with a mixture of 500 ng (per well in a 6-well plate) AP-TGFα-encoding plasmid and 200 ng GPR103-encoding plasmid. After 1-day culture, the transfected cells were harvested by trypsinization, pelleted by centrifugation at 190 × g for 5 min, and washed once with 5 mM HEPES (pH 7.4)-containing Hank’s Balanced Salt Solution (HBSS). After centrifugation, the cells were resuspended in 8 mL of the HEPES-containing HBSS. The cell suspension was seeded in a 96-well culture plate (cell plate) at a volume of 90 μL (per well hereafter) and incubated in a 37 °C incubator with 5% CO2 for 30 min. […] After spinning the cell plates at 190 × g for 2 min, 80 μL of conditioned media was transferred to an empty 96-well plate (conditioned media (CM) plate). Then, 80 μL of AP reaction solution (10 mM p-nitrophenylphosphate (p-NPP), 120 mM Tris-HCl (pH 9.5), 40 mM NaCl, and 10 mM MgCl2) was dispensed into the cell plates and the CM plates. Absorbance at 405 nm of the plates was measured using a microplate reader (SpectraMax 340 PC384, Molecular Devices) before and after 1-h incubation at room temperature. Ligand-induced AP-TGFα release was calculated by subtracting spontaneous AP-TGFα release signal from ligand-induced AP-TGFα release signal. The AP-TGFα release signals were fitted to a four-parameter sigmoidal concentration–response curve, using the Prism 10 software (GraphPad Prism). For each replicate experiment, the pEC50 parameter (negative logarithmic values of EC50 values) of the individual GPR103 mutants were normalized to that of the wild-type GPR103 performed in parallel, and resulting ∆pEC50 values were used to denote ligand response activity of the mutants. […]
Exp. le vel: WT (1:5 0)Exp. le vel: WT (1:5 0)Exp. le vel: WT (1:5 0)Exp. le vel: WT (1:2 0)Exp. le vel: WT (1:2 0)Exp. le vel: WT (1:1 0) […]
L1 4N - t e r mA F2 5N - t e r mA I 2 6N - t e r mA Y 2 9N - t e r mA C 9 82 .5 7A T10 22 .6 1A Exp . l eve l: WT (1 :5)Exp . l evel : >WT (1 :1)Exp. le vel: WT (1:2 0)Exp. le vel: WT (1:2 0)Exp. le vel: WT (1:5 0)Exp . l eve l: WT (1 :1) […]
Exp. le vel: WT (1:1 0)Exp. le vel: WT (1:2 0) C 1 1 83 .2 5AExp. le vel: WT (1:5 0)Exp. le vel: WT (1:5 0)Exp. le vel: WT (1:2 0)Exp . l eve l: WT (1 :5) […]
Exp. le vel: WT (1:5 0)Exp. le vel: WT (1:1 0)Exp. le vel: WT (1:5 0) E203ECL2AExp . l evel : >WT (1 :1)Exp. le vel: WT (1:5 0)Exp. le vel: WT (1:5 0) […]
Exp . l eve l: WT (1 :1) F28Exp. le vel: WT (1:5 0) C 2 8 56 .4 7AExp. le vel: WT (1:2 0) WExp. le vel: WT (1:2 0) F28Exp. le vel: WT (1:5 0)Exp . l evel : >WT (1 :1) […]
Exp. le vel: WT (1:5 0)Exp. le vel: WT (1:5 0) C 3 2 77 .4 8AExp . l eve l: WT (1 :5)Exp . l evel : >WT (1 :1)Exp . l evel : >WT (1 :1) […]
Suppl eme nt ary Figure 1 | Mutational analysis of GPR103. […]
mutants. Data are presented as mean values ± SEM, normally n=3-5; dots), each performed in triplicate. b-d Cell-surface expression (b) and QRFP26-in-duced activation of GPR103 (c, d) were analyzed by the flow cytometry and the TGFα shedding assay, respectively. From the concentration–response curves (a), Emax (c) and ΔpEC50 (d) values relative to the wild type were calculated. Colors in the mutant bars indicate an expression level matching to that of titrated wild type. Statistical analyses were performed using the ordinary one-way ANOVA followed by Dunnett tests with the expression-matched […]

Substance: TSGPLGNLAEELNGYSRKKGGFSFRF-NH2 [QRFP26]
- Emax (Exp. #1): 103.83 % WT
- Emax (Exp. #2): 92.88 % WT
- Emax (Exp. #3): 104.15 % WT
- Emax (mean, read-out: Emax): 100%
- EC50 (n = 3): 178 nM
- Emax (n = 3, read-out: Emax): 104 ± 3%
